From patent US20240317736A1, “DEUTERATED DERIVATIVE AS ATX INHIBITOR, AND APPLICATION THEREOF” (Xizang Haisco Pharmaceutical Co., Ltd., priority 2020, published 2024) come the findings set out here.

Series [1] addresses T1, autocrine motility factor (Homo sapiens, UniProt Q13822).
T1 construct: Whole blood was anticoagulated with heparin and centrifuged, and then plasma was collected; from tissue; host or cells: pooled human plasma (heparin-anticoagulated whole blood)
As to the kind of experiment: Inhibition of LPA formation in mixed ex vivo human plasma. Conditions: 37° C., 2 h. It counts as biochemical. As for the experimental part:
Autocrine motility factor is a phosphodiesterase in plasma that converts lysophosphatidylcholine (LPC) to lysophosphatidic acid (LPA). Therefore, the formation of LPA can be used to evaluate the potency of an autocrine motility factor inhibitor. The potency of the compound in mixed ex vivo human plasma was evaluated.
Whole blood was anticoagulated with heparin and centrifuged, and then plasma was collected. 5 μL of gradient-diluted test compounds or DMSO was added to 95 μL of plasma and incubated at 37° C. for 2 h. After that, a stop buffer (40 mM disodium hydrogen phosphate buffer, containing 30 mM of citric acid, pH=4) was added. LPA in plasma was detected by LC-MSMS before and after incubation. In order to determine the concentration of LPA 18:2 or LPA 20:4 in the plasma in study, calibration standard substances at 20000 ng/mL, 10000 ng/mL, 5000 ng/ml, 2000 ng/ml, 1000 ng/mL, 500 ng/mL, 200 ng/ml, 100 ng/mL, 50 ng/ml, 20 ng/mL and 10 ng/ml for LPA 18:2 or LPA 20:4 were prepared by performing serial dilution in butanol. 3 μL of calibration standard solution was added to 27.0 μL of blank plasmas in each 1.5 mL microcentrifuge tube to produce 1× calibration standard substances. 30.0 μL of standard substances or plasma in study was added to each 1.5 mL microcentrifuge tube. 200 μL of butanol (containing 25.0 ng/mL LPA 17:0 for internal control) was added to each 1.5 mL microcentrifuge tube containing the plasma in study or calibration standard substance. Vortex oscillation was performed for 1 min, and centrifugation was performed at 10000 rpm for 10 min. 180 μL of the supernatant was transferred to a 96-well plate, and LC/MS/MS was used together with the standard substance to quantify the concentration of LPA 18:2 in the plasma. In short, 8 μL of the solution was injected, and LC-MS/MS analysis using an ACQUITY UPLC BEH C18 column (2.1×50 mm, 1.7 μm) was performed, wherein mobile phase A [20 mM NH4OAC aqueous solution (0.1% FA)] and mobile phase B [5 mM NH4OAC aqueous solution/0.2% FA in ACN=5:95] were used. The parameters of a mass spectrometer for LPA 18:2 were optimized by means of deprotonation of molecular ions. For LPA 18:2 at m/z 433.2([M−H]−), LPA 20:4 at 457.2, and LPA 18:2 and LPA 20:4 both at m/z 152.8, abundant product ions were obtained. Quantitative data were obtained in a multiple reaction monitoring (MRM) negative electrospray ionization mode.
The inhibition rates of compounds at different concentrations on LPA formation were determined by comparing the changes of LPA levels in incubated and unincubated plasma. The IC50 of the compounds was calculated as a calculation inhibition rate, and the relative concentration at each well=the concentration at each well−the average concentration at baseline.
Inhibition rate %=(average relative concentration at control well−average relative concentration at test well)/average relative concentration at control well×100%. The curve was plotted with the inhibition rates as a y axis and the compound concentrations as an x axis, and fitting was performed by GraphPad Prism7.0 using log (inhibitor) and normalized response (variable slope).

Series [2] is described as follows: Pharmacokinetic test in rats. The series is classed as in vivo. The settings on record: male, SD, rat, plasma; for Cmax: read-out: C0 or Cmax; for bioavailability: PO 5 mg/kg vs IV 1 mg/kg. Here is the method:
Test objective: test compounds were given to SD rats via single-dose intravenous and intragastric administration, the concentrations of the test compounds in plasma of rats were measured, and the pharmacokinetic characteristics and bioavailability of test compounds in rats were evaluated.
Test animals: male SD rats, about 220 g, 6-8 weeks old, six rats/compound, purchased from Chengdu Ddossy Experimental Animals Co., Ltd.
Test method: on the day of the test, 6 SD rats were randomly grouped according to their body weights. The rats were fasted with water available for 12-14 h one day before the administration, and were fed 4 h after the administration. The administration was performed according to Table 5.
Before and after the administration, 0.1 mL of blood was taken from the orbits of the rats under isoflurane anaesthesia, and placed in an EDTAK2 centrifuge tube. Centrifugation was performed at 5000 rpm at 4° C. for 10 min, and plasma was collected.
Time points for sample collection in group G1 comprise 0 min, 5 min, 15 min, 30 min, 1 h, 2 h, 4 h, 6 h, 8 h and 24 h.
Time points for sample collection in group G2 comprise 0 min, 15 min, 30 min, 1 h, 2 h, 4 h, 6 h, 8 h and 24 h.
30 μL of each of plasma samples, standard curve samples and quality control samples was taken, and 200 μL of acetonitrile solution containing an internal standard was added, and the resulting mixture was homogeneously mixed by vortex and centrifuged at 4° C. at 12000 rpm for 10 min. 170 μL of the supernatant was taken to a 96-well plate, and LC-MS/MS analysis was performed, wherein the sample size was 2 μL.
The main pharmacokinetic parameters were analyzed by a non-compartmental model using WinNonlin 8.0 software.

Setting [3] is: LPA 18:2 by LC-MS/MS, read-out: IC50 for inhibiting LPA formation (18:2).
The mark [4] stands for this setting: LPA 20:4 by LC-MS/MS, read-out: IC50 for inhibiting LPA formation (20:4).

SMILES strings stand for the structures. Read-outs that look alike come from different tables or passages of the source.

Regarding `[2H]C([2H])([2H])C([2H])([2H])c1nn2cc(F)c(N3CCN(CC(=O)N4CC(O)C4)CC3)cc2c1N(C)c1nc(-c2ccc(F)cc2)c(C#N)s1` [Compound 1, 2-((2-(ethyl-d5)-6-fluoro-5-(4-(2-(3-hydroxyazetidin-1-yl)-2-oxoethyl)piperazin-1-yl)pyrazolo[1,5-a]pyridin-3-yl)(methyl)amino)-4-(4-fluorophenyl)thiazole-5-carbonitrile], the IC50 in series [1] (setting [3]) came to 46 nM. The IC50 in series [1] (setting [4]) was 48.5 nM. Further, in series [2] (IV 1 mg/kg), the AUC turned out to be 1060 ± 124 ng·h/mL, the half-life was 2.6 ± 0.61 h and the Cmax was found to be 967 ± 106 ng/mL. Moreover, in series [2] (PO 5 mg/kg), the AUC stood at 1170 ± 46 ng·h/mL, the Tmax turned out to be 4 ± 2 h, the half-life was 6.4 ± 2.4 h and the Cmax turned out to be 181 ± 10 ng/mL. This compound registered a bioavailability in series [2] of 22.1 ± 0.87%.
As for `[2H]C([2H])([2H])N(c1nc(-c2ccc(F)cc2)c(C#N)s1)c1c(C([2H])([2H])C([2H])([2H])[2H])nn2cc(F)c(N3CCN(CC(=O)N4CC(O)C4)CC3)cc12` [Compound 2, 2-((2-(ethyl-d5)-6-fluoro-5-(4-(2-(3-hydroxyazetidin-1-yl)-2-oxoethyl)piperazin-1-yl)pyrazolo[1,5-a]pyridin-3-yl)(methyl-d3)amino)-4-(4-fluorophenyl)thiazole-5-carbonitrile], the IC50 in series [1] (setting [3]) amounted to 52 nM. In addition, the IC50 in series [1] (setting [4]) worked out at 55.3 nM. In addition, in series [2] (IV 1 mg/kg), the AUC stood at 1330 ± 83 ng·h/mL, the half-life is 2.4 ± 0.35 h and the Cmax came out at 1030 ± 62 ng/mL. In series [2] (PO 5 mg/kg), the AUC came out at 2570 ± 449 ng·h/mL, the time of peak concentration (Tmax) was determined as 4.33 ± 2.9 h, the half-life is 2.87 ± 0.15 h and the Cmax stood at 297 ± 105 ng/mL. In series [2], this compound had a bioavailability of 38.6 ± 6.7%.
For the compound `[2H]C1([2H])N(CC(=O)N2CC(O)C2)C([2H])([2H])C([2H])([2H])N(c2cc3c(N(C)c4nc(-c5ccc(F)cc5)c(C#N)s4)c(CC)nn3cc2F)C1([2H])[2H]` [Compound 4, 2-((2-ethyl-6-fluoro-5-(4-(2-(3-hydroxyazetidin-1-yl)-2-oxoethyl)piperazin-1-yl-2,2,3,3,5,5,6,6-d8)pyrazolo[1,5-a]pyridin-3-yl)(methyl)amino)-4-(4-fluorophenyl)thiazole-5-carbonitrile], the IC50 was determined as 51.8 nM in series [1] (setting [3]) and 54.8 nM in series [1] (setting [4]).
Consider `[2H]c1c([2H])c(-c2nc(N(C)c3c(CC)nn4cc(F)c(N5CCN(CC(=O)N6CC(O)C6)CC5)cc34)sc2C#N)c([2H])c([2H])c1F` [Compound 9, 2-((2-ethyl-6-fluoro-5-(4-(2-(3-hydroxyazetidin-1-yl)-2-oxoethyl)piperazin-1-yl)pyrazolo[1,5-a]pyridin-3-yl)(methyl)amino)-4-(4-fluorophenyl-2,3,5,6-d4)thiazole-5-carbonitrile], for which, in series [2] (IV 1 mg/kg), the AUC was 943 ± 109 ng·h/mL, the half-life is 1.93 ± 0.072 h and the Cmax came to 748 ± 187 ng/mL. In series [2] (PO 5 mg/kg), the AUC worked out at 2420 ± 860 ng·h/mL, the Tmax was 1.17 ± 0.76 h, the half-life was 2.43 ± 0.33 h and the Cmax amounted to 399 ± 137 ng/mL. Moreover, in series [2], the bioavailability worked out at 51.3 ± 18%.
In the case of `[2H]c1c([2H])c(-c2nc(N(c3c(CC)nn4cc(F)c(N5CCN(CC(=O)N6CC(O)C6)CC5)cc34)C([2H])([2H])[2H])sc2C#N)c([2H])c([2H])c1F` [Compound 10, 2-((2-ethyl-6-fluoro-5-(4-(2-(3-hydroxyazetidin-1-yl)-2-oxoethyl)piperazin-1-yl)pyrazolo[1,5-a]pyridin-3-yl)(methyl-d3)amino)-4-(4-fluorophenyl-2,3,5,6-d4)thiazole-5-carbonitrile], in series [2] (IV 1 mg/kg), the AUC stood at 1050 ± 84 ng·h/mL, the half-life is 2.05 ± 0.29 h and the Cmax stood at 813 ± 85 ng/mL. In series [2] (PO 5 mg/kg), the AUC is 1960 ± 858 ng·h/mL, the Tmax came to 2.83 ± 2 h, the half-life is 2.63 ± 0.071 h and the Cmax was found to be 234 ± 136 ng/mL. In series [2], this compound had a bioavailability of 37.3 ± 6%.

One may read the IC50 as the concentration that gives 50% inhibition. A word on the AUC: it is concentration integrated over time. As a reminder, the half-life is the time needed for the level to fall by half in the phase considered. By Cmax is commonly meant the highest concentration seen after dosing. As a reminder, the Tmax is the time at which the peak concentration occurs. In general, bioavailability refers to dose-corrected exposure relative to a reference, in per cent. The low end stands for little systemic uptake, the high end for much systemic uptake.
